Experimental data taken from US20030162165A1, “Chemical signal enhancement of dynamic intensity-based intracellular protein-and fluorophore-based redistribution assays for drug-screening” (priority 2003, published 2003).
“Also recorded” adds a separate entry of the source.

Legend:
[1] = system: mouse cPKA (catalytic subunit of protein kinase A) tagged with GFP; experiment: Type 2 redistribution assay (cPKA-GFP, Forskolin stimulus) on FLIPR; format: cell-based; details: for effect on type 2 redistribution response: CHO cells, concentration gradient of dye
Method: The CHO (Chinese hamster ovary) cell line stably expressing the mouse cPKA (catalytic subunit of protein kinase A) tagged with GFP (green fluorescent protein) in its N-terminal end was cultured in 96-well microtiter plates (Packard View-Plate). After 20 min preincubation in KRW (experimental buffer; A modified Krebs-Ringer buffer containing (in mM): NaCl 140, KCl 3.6, NaH2PO4 0.5, MgSO4 0.5, NaHCO3 2.0, CaCl2 1.5 and HEPES 10, D-glucose 5 (pH 7.4, titrated with 1M NaOH)) the cell plate was supplemented with a concentration gradient of Trypan Blue and Acid Red 88 (4 wells per compound and concentration) and placed in the FLIPR™. Subsequently the cells were stimulated in the FLIPR™ with 10 μM Forskolin. This gives a Type 2 redistribution response (see FIG. 6) in these cells where the redistribution can be quantified as an increase in fluorescence intensity, as cPKA moves from aggregates in the cytosol to a dispersed form in the cytosol, during the first 2-5 minutes of stimulation. All data were corrected for background by subtraction of a background trace based on 16 individual background traces and normalized to 1 at the point of addition of 10 μM Forskolin. The data points represent the average of four determinations+SD. The data were extracted as the maximal change in fluorescence during the first five minutes of stimulation. Negative values depict a decrease In fluorescence during the response and positive values and Increase.
The CHO (Chinese hamster ovary) cell line stably expressing the mouse cPKA (catalytic subunit of protein kinase A) tagged with GFP (green fluorescent protein) in its N-terminal end was cultured in 96-well microtiter plates (Packard View-Plate). After 20 min preincubation in KRW (experimental buffer; A modified Krebs-Ringer buffer containing (in mM): NaCl 140, KCl 3.6, NaH2PO4 0.5, MgSO4 0.5, NaHCO3 2.0, CaCl2 1.5 and HEPES 10, D-glucose 5 (pH 7.4, titrated with 1M NaOH)) the cell plate was supplemented with a concentration gradient of Trypan Blue and Acid Red 88 at 0, 10, 50, 100 and 200 μM during the experimental fluorescence recording (4 wells per compound and concentration) in the FLIPR™. […] The data were extracted as the absolute fluorescence change 30 seconds after addition of the two compounds.
The CHO (Chinese hamster ovary) cell line stably expressing the mouse cPKA (catalytic subunit of protein kinase A) tagged with GFP (green fluorescent protein) in its N-terminal end was cultured in 96-well microtiter plates (Packard View-Plate). […] This gives a Type 2 redistribution response (see FIG. 6) in these cells where the redistribution can be quantified as an increase in fluorescence intensity, as cPKA moves from aggregates in the cytosol to a dispersed form in the cytosol, during the first 2-5 minutes of stimulation.

[2] = cited from earlier work; for Molar Absorptivity 488 nm: at 488 nm; for Molar Absorptivity 488 nm / Molar Absorptivity 500-550 nm: estimated from published spectra; for Molar Absorptivity 500-550 nm: average over 500-550 nm; for Wavelength of maxiumum absorbance: published spectra
[3] = system: PH-domain (pleckstrin homology) of the human isoform of PLC (phospho-lipase C) delta tagged with GFP; experiment: Type 3 redistribution assay (PLC delta PH-domain-GFP, ATP stimulus) on FLIPR; format: cell-based; details: for increase in the measurable response, type 3 redistribution: summary, enhancer added to extracellular medium, FLIPR
Method: The CHO (Chinese hamster ovary) cell line stably expressing the PH-domain (pleckstrin homology) of the human isoform of PLC (phospho-lipase C) delta tagged with GFP (green fluorescent protein) in its C-terminal end was cultured in 96-well microtiter plates (Packard View-Plate). After 20 min preincubation in KRW (experimental buffer; A modified Krebs-Ringer buffer containing (in mM): NaCl 140, KCl 3.6, NaH2PO4 0.5, MgSO4 0.5, NaHCO3 2.0, CaCl2 1.5 and HEPES 10, D-glucose 5 (pH 7.4, titrated with 1M NaOH)) the cell plate was supplemented with 100 μM Trypan Blue in one half and 10 μM Acid Red 88 in the other half of the wells and placed in the FLIPR™. Subsequently the cells were stimulated in the FLIPR™ with a range of ATP concentrations starting with 300 μM and lower by a threefold reduction of concentration in each dilution step. This gives a Type 3 redistribution response (see FIG. 6) in these cells where the redistribution can be quantified as an increase in fluorescence intensity, as the PH-domain of PLC delta 1 moves from the membrane to the cytosol, during the first 1-2 minutes of stimulation. FIG. 4 summarizes this experiment. All data were corrected for background by subtraction of a background trace based on 4 individual background traces. The data points represent the average of four determinations+SD. The data were extracted as the maximal change during the first minute of stimulation (Smax-Smin).
The CHO (Chinese hamster ovary) cell line stably expressing the PH-domain (pleckstrin homology) of the human isoform of PLC (phospho-lipase C) delta tagged with GFP (green fluorescent protein) in its C-terminal end was cultured in 96-well microtiter plates (Packard View-Plate). After 20 min preincubation in KRW (experimental buffer; A modified Krebs-Ringer buffer containing (in mM): NaCl 140, KCl 3.6, NaH2PO4 0.5, MgSO4 0.5, NaHCO3 2.0, CaCl2 1.5 and HEPES 10, D-glucose 5 (pH 7.4, titrated with 1M NaOH)) the cell plate was supplemented with 100 μM Trypan Blue in one half and 20 μM Acid Red 88 in the other half of the wells and placed in the FLIPR. Subsequently the cells were stimulated in the FLIPR with 100 μM ATP. This gives a Type 3 redistribution response (see FIG. 6) in these cells where the redistribution can be quantified as an increase in fluorescence intensity, as the PH-domain of PLC delta 1 moves from the membrane to the cytosol, during the first 1-2 minutes of stimulation. FIG. 4 summarizes this experiment. It can be seen that Acid Red 88 in this case maximally gives about a 6-7-fold increase in signal over the one obtained with Trypan Blue.

[4] = system: human isoform of PKC (protein kinase C) beta 1 tagged with GFP; experiment: Type 1 redistribution assay (PKC beta 1-GFP, ATP stimulus) on FLIPR; format: cell-based; details: for increase in the measurable response, type 1 redistribution: summary, enhancer added to extracellular medium, FLIPR
Method: (§1) The CHO (Chinese hamster ovary) cell line stably expressing the human isoform of PKC (protein kinase C) beta 1 tagged with GFP (green fluorescent protein)in its C-terminal end and the human RACK1 (receptor for activated C kinase) was cultured in 96-well microtiter plates (Packard View-Plate). After 20 min preincubation in KRW (experimental buffer; A modified Krebs-Ringer buffer containing (in mM): NaCl 140, KCl 3.6, NaH2PO4 0.5, MgSO4 0.5, NaHCO3 2.0, CaCl2 1.5 and HEPES 10, D-glucose 5 (pH 7.4, titrated with 1M NaOH)) the cell plate was supplemented with a concentration gradient of Trypan Blue at 0, 10, 50, 100 and 200 μM (4 wells per compound and concentration) and placed in the FLIPR™. Subsequently the cells were stimulated in the FLIPR™ with 100 μM ATP. This gives a Type 1 redistribution response (see FIG. 6) in these cells where the redistribution can be quantified as a reduction in fluorescence intensity, as PKC beta 1 moves from the cytosol to the membrane, during the first 1-2 minutes of stimulation. […] All data were corrected for background by subtraction of a background trace based on 16 individual background traces and normalized to 1 at the point of addition of 100 μM ATP.
as §1, with “Acid Red 88” for “Trypan Blue”
The CHO (Chinese hamster ovary) cell line stably expressing the human isoform of PKC (protein kinase C) beta 1 tagged with GFP (green fluorescent protein) in its C-terminal end and the human RACK1 (receptor for activated C kinase) was cultured in 96-well microtiter plates (Packard View-Plate). After 20 min preincubation in KRW (experimental buffer; A modified Krebs-Ringer buffer containing (in mM): NaCl 140, KCl 3.6, NaH2PO4 0.5, MgSO4 0.5, NaHCO3 2.0, CaCl2 1.5 and HEPES 10, D-glucose 5 (pH 7.4, titrated with 1M NaOH)) the cell plate was supplemented with a concentration gradient of Trypan Blue, Acid Red 88 and Orange G at 0, 10, 50, 100 and 200 μM (4 wells per compound and concentration) and placed in the FLIPR™. Subsequently the cells were stimulated in the FLIPR™ with 100 μM ATP. This gives a Type 1 redistribution response (see FIG. 6) in these cells where the redistribution can be quantified as a reduction in fluorescence intensity, as PKC beta 1 moves from the cytosol to the membrane, during the first 1-2 minutes of stimulation. All data were corrected for background by subtraction of a background trace based on 16 individual background traces and normalized to 1 at the point of addition of 100 μM ATP. The data points represent the average of four determinations+SD. […]

Solubility in water = format: physicochemical

Row | solubility (Solubility in water) [µg/mL] | effect on type 3 redistribution response ([3]; 100 μM Trypan Blue, response barely detectable without the compound) | Structure (SMILES) | effect on overall basal fluorescence, type 2 redistribution assay ([1]; 0-200 μM, no stimulus (FIG. 10)) | effect on type 2 redistribution response ([1]; 10 μM Forskolin) | effect on type 2 redistribution response at higher concentrations ([1]; above 10 μM, 10 μM Forskolin) | Molar Absorptivity 488 nm [2] [mol^−1-cm^−1] | Molar Absorptivity 500-550 nm [2] [mol^−1-cm^−1] | Wavelength of maxiumum absorbance [2] [nm] | increase in signal over the one obtained with Trypan Blue, type 3 redistribution ([3]; maximal, 20 μM Acid Red 88 vs 100 μM Trypan Blue, CHO cells, ATP) | increase in the measurable response, type 3 redistribution [3] | maximal enhancement of the response compared to the control ([4]; at 50 μM enhancer, CHO cells, 100 μM ATP) | effect on overall basal fluorescence, type 1 redistribution assay ([4]; concentration dependent, 0-200 μM, no stimulus (FIG. 7)) | increase in the measurable response, type 1 redistribution [4] | maximal enhancement of the response compared to the control ([4]; at 200 μM enhancer, CHO cells, 100 μM ATP) | enhancing effect on type 1 redistribution response ([4]; CHO cells, 100 μM ATP, 0-200 μM dye)
1 |  |  | O=S(=O)([O-])c1ccc(N=Nc2c(O)ccc3ccccc23)c2ccccc12.[Na+] [Acid Red 88] | did not reduce the overall basal fluorescence | completely abolished the response at the lowest concentration | reversed it to a fluorescence decrease | 16986 | 14964 | 505 | 6-7 fold | 7-10 fold | about 7 fold | reduces overall basal fluorescence | 6-7 fold |  | 
2 | < 100 | clearly give a detectable signal | Cc1cc(-c2ccc(/N=N/c3c(S(=O)(=O)O)cc4cc(S(=O)(=O)O)cc(N)c4c3O)c(C)c2)ccc1/N=N/c1c(S(=O)(=O)O)cc2cc(S(=O)(=O)O)cc(N)c2c1O [Trypan Blue] |  | reduced it somewhat at higher concentrations; also recorded: no enhancing effect |  | 16014 | 34556 | 607 |  | 1-3 fold |  |  | 2-3 fold | about 3 fold | 
3 |  |  | O=S(=O)(O)c1cc(S(=O)(=O)O)c2c(/N=N/c3ccccc3)c(O)ccc2c1 [Orange G] |  |  |  | 13571 | 4524 | 475 |  |  |  |  |  |  | enhancing properties up to a concentration of 100 μM; also recorded: inferior to Trypan Blue and much inferior to Acid Red 88
